# Reference: patent publication US20080021056A1, “Fused, Tricyclic Sulfonamide Inhibitors of Gamma Secretase” (priority 2006, published 2008)
# Target: T1, gamma-secretase (Homo sapiens, UniProt P49768)
# T1 construct: partially purified extract of IMR-32 cell membranes as the gamma-secretase enzyme preparation; endogenous in cells; host or cells: IMR-32 cell membranes (partially purified extract)
# Assay: Gamma-secretase APP enzyme assay
# Type: biochemical
# Conditions: cleavage of MBP-C125 Swe substrate at the Aβ40 site; partially purified extract of IMR-32 cell membranes; ELISA
# Text: The gamma-secretase APP enzyme assay was designed to measure the specific proteolytic cleavage of an APP substrate (MBP-C125 Swe fusion protein) at the Aβ40 site. The assay used a partially purified extract of IMR-32 cell membranes as the gamma-secretase enzyme preparation and a recombinant fusion protein containing the C-terminal 125 amino acids of the Swedish variant of the APP (MBP-C125swe) as the substrate. This assay involved two steps beginning with the enzymatic reaction generating a cleavage product that was captured with an immobilized antibody specific for the neo-epitope Aβ40 site. The captured cleavage product was then detected in a sandwich ELISA assay with a biotinylated reporter antibody that is specific to Aβ (17-28). Streptavidin-linked alkaline phosphatase was then added that would generate a fluorescent signal proportional to the amount of cleavage product. This assay was used to discover small molecule inhibitors of gamma-secretase.
# Briefly, a 149 mg/ml solution of BIGCHAP detergent was made with water at 42° C. and then rotated for 30 minutes at the same temperatures This warmed solution of BigCHAPS (N,N-Bis(3-D-gluconamidopropyl)cholamide) detergent was used to dissolve Brain Extract Type-V (lipid containing a minimum of 40% phosphatidylethanolamine) from Signa (St. Louis, Mo.) to a concentration of 8 mg/ml. This solution containing BigCHAPS and lipid at 8 mg/ml is then diluted to 0.53 mg/ml lipid with a pre-warmed solution of Hepes and sodium chloride. This final solution containing Hepes buffer, sodium chloride, BigCHAPS detergent and lipid is used to create working solutions of both gamma-secretase (25 Units) and the MBP-C125 substrate (0.05 mg/ml).
# Gamma-secretase was then added to a 96-well micro-titre plate and then incubated with various concentrations of inhibitor for 30 minutes at 37° C. MBPC125 substrate was then added to initiate the reaction that would run for two hours at 37° C. The reaction was quenched with the addition of SDS to a final concentration of 0.1% and then 100 μl of the reaction mixture was transferred to a capture ELISA plate and incubated overnight at 4° C. Detection of the cleavage product was performed using a standard sandwich ELISA assay and quantified using a six point standard curve.
row,IC50,Compound
1,0.1 to 100 nM,"CC1c2c[nH]nc2-c2cc(Cl)sc2N1S(=O)(=O)c1ccc(C(F)(F)F)cc1 (stereo not shown) [7-chloro-4-methyl-5-(4-(trifluoromethyl)phenylsulfonyl)-4,5-dihydro-1H-pyrazolo[3,4-d]thieno[2,3-b]pyridine]"
2,0.1 to 100 nM,"CC1c2c[nH]nc2-c2ccncc2N1S(=O)(=O)c1ccc(Cl)cc1 (stereo not shown) [5-(4-chlorophenylsulfonyl)-4-methyl-4,5-dihydro-2H-pyrazolo[4,3-c][1,7]naphthyridine]"
3,0.1 to 100 nM,"O=S(=O)(c1ccc(C(F)(F)F)nc1)N1c2cc(OC(F)(F)F)ccc2-c2n[nH]cc2[C@H]1C1CC1 [(R)-4-cyclopropyl-7-(trifluoromethoxy)-5-(6-(trifluoromethyl)pyridin-3-ylsulfonyl)-4,5-dihydro-2H-pyrazolo[4,3-c]quinoline]"
4,0.1 to 100 nM,"CC1c2c[nH]nc2-c2cc(F)c(F)cc2N1S(=O)(=O)c1cccs1 (stereo not shown) [7,8-difluoro-4-methyl-5-(thiophen-2-ylsulfonyl)-4,5-dihydro-2H-pyrazolo[4,3-c]quinoline]"
5,0.1 to 100 nM,"CC1c2cn[nH]c2-c2ccc(O)cc2N1S(=O)(=O)c1ccc(Cl)cc1 (stereo not shown) [5-(4-chlorophenylsulfonyl)-4-methyl-4,5-dihydro-1H-pyrazolo[4,3-c]quinolin-7-ol]"
6,0.1 to 100 nM,"CCC1c2cn[nH]c2-c2cc(F)c(F)cc2N1S(=O)(=O)c1ccc(C(F)(F)F)cn1 (stereo not shown) [4-ethyl-7,8-difluoro-5-(5-(trifluoromethyl)pyridin-2-ylsulfonyl)-4,5-dihydro-1H-pyrazolo[4,3-c]quinoline]"
7,501 to 1000 nM,"Cc1noc(C)c1S(=O)(=O)N1c2ccc(F)cc2-c2[nH]ncc2C1C (stereo not shown) [4-(8-fluoro-4-methyl-1H-pyrazolo[4,3-c]quinolin-5(4H)-ylsulfonyl)-3,5-dimethylisoxazole]"
8,0.1 to 100 nM,"O=S(=O)(c1ccc(C(F)(F)F)cc1)N1c2cccnc2-c2n[nH]cc2C1C1CC1 (stereo not shown) [4-cyclopropyl-5-(4-(trifluoromethyl)phenylsulfonyl)-4,5-dihydro-2H-pyrazolo[4,3-c][1,5]naphthyridine]"
9,0.1 to 100 nM,"O=S(=O)(c1ccc(Cl)cc1)N1c2ccccc2-c2n[nH]cc2C12CC2 [5′-(4-chlorophenylsulfonyl)-2′,5′-dihydrospiro[cyclopropane-1,4′-pyrazolo[4,3-c]quinoline]]"
10,101 to 500 nM,"O=S(=O)(c1ccc(Cl)cc1)N1c2nccn2-c2[nH]ncc2C1C1CC1 (stereo not shown) [5-(4-chlorophenylsulfonyl)-4-cyclopropyl-4,5-dihydro-1H-imidazo[1,2-a]pyrazolo[4,3-e]pyrimidine]"
11,0.1 to 100 nM,"CC1c2cn[nH]c2-c2cc(O)c(O)cc2N1S(=O)(=O)c1ccc(Cl)cc1 (stereo not shown) [5-(4-chlorophenylsulfonyl)-4-methyl-4,5-dihydro-1H-pyrazolo[4,3-c]quinoline-7,8-diol]"
12,0.1 to 100 nM,"CC1c2c[nH]nc2-c2c(F)cccc2N1S(=O)(=O)c1ccc(Cl)cc1 (stereo not shown) [5-(4-chlorophenylsulfonyl)-9-fluoro-4-methyl-4,5-dihydro-2H-pyrazolo[4,3-c]quinoline]"
13,101 to 500 nM,"CCC1N(S(=O)(=O)c2ccc(Cl)cc2)c2ccccc2-c2ccnn21 (stereo not shown) [6-(4-chlorophenylsulfonyl)-5-ethyl-5,6-dihydropyrazolo[1,5-c]quinazoline]"
14,0.1 to 100 nM,"COc1ccc(S(=O)(=O)N2c3ccc(F)cc3-c3[nH]ncc3[C@H]2C2CC2)cc1 [(R)-4-cyclopropyl-8-fluoro-5-(4-methoxyphenylsulfonyl)-4,5-dihydro-1H-pyrazolo[4,3-c]quinoline]"
15,0.1 to 100 nM,"O=S(=O)(c1ccc(F)cc1)N1c2ncccc2-c2n[nH]cc2C1C(F)(F)F (stereo not shown) [5-(4-fluorophenylsulfonyl)-4-(trifluoromethyl)-4,5-dihydro-2H-pyrazolo[4,3-c][1,8]naphthyridine]"
16,0.1 to 100 nM,"O=S(=O)(c1ccc(C(F)(F)F)cc1)N1c2cc(F)c(F)cc2-c2[nH]ncc2C1C1CC1 (single isomer, unassigned) [4-cyclopropyl-7,8-difluoro-5-(4-(trifluoromethyl)phenylsulfonyl)-4,5-dihydro-1H-pyrazolo[4,3-c]quinoline]"
17,0.1 to 100 nM,"COc1ccc2c(c1)N(S(=O)(=O)c1ccc(Cl)cc1)C(C)c1c[nH]nc1-2 (stereo not shown) [5-[(4-chlorophenyl)sulfonyl]-7-methoxy-4-methyl-4,5-dihydro-1H-pyrazolo[4,3-c]quinoline]"
18,0.1 to 100 nM,"O=S(=O)(c1ccc(C(F)(F)F)cc1)N1c2c[n+]([O-])ccc2-c2n[nH]cc2C1C1CC1 (stereo not shown) [4-cyclopropyl-5-(4-(trifluoromethylphenylsulfonyl)-4,5-dihydro-2H-pyrazolo[4,3-c][1,7]naphthyridine 7-oxide]"
19,0.1 to 100 nM,"O=S(=O)(c1ccc(C(F)(F)F)nc1)N1c2cc(C(F)(F)F)ccc2-c2[nH]ncc2[C@H]1C1CC1 [(R)-4-cyclopropyl-7-(trifluoromethyl)-5-(6-(trifluoromethyl)pyridin-3-ylsulfonyl-4,5-dihydro-1H-pyrazolo[4,3-c]quinoline]"
20,0.1 to 100 nM,"O=S(=O)(c1ccc(Cl)cc1)N1Cc2c[nH]nc2-c2c(F)cccc21 [5-[(4-chlorophenyl}sulfonyl]-9-fluoro-4,5-dihydro-2H-pyrazolo[4,3-c]quinoline]"
21,0.1 to 100 nM,"O=S(=O)(c1ccc(OC(F)(F)F)cc1)N1c2ccc(F)cc2-c2[nH]ncc2[C@H]1C1CC1 [(R)-4-cyclopropyl-8-fluoro-5-(4-(trifluoromethoxy)phenylsulfonyl)-4,5-dihydro-1H-pyrazolo[4,3-c]quinoline]"
22,0.1 to 100 nM,"CC1c2c[nH]nc2-c2ccc(F)cc2N1S(=O)(=O)c1ccc(Cl)cc1 (stereo not shown) [5-(4-chlorophenylsulfonyl)-7-fluoro-4-methyl-4,5-dihydro-2H-pyrazolo[4,3-c]quinoline]"
23,0.1 to 100 nM,"CC(C)C1c2c[nH]nc2-c2ccccc2N1S(=O)(=O)c1ccc(Cl)cc1 (stereo not shown) [5-(4-chlorophenylsulfonyl)-4-isopropyl-4,5-dihydro-2H-pyrazolo[4,3-c]quinoline]"
24,1000 to 10000 nM,"CC1c2c[nH]nc2-c2cc(F)ccc2N1S(=O)(=O)c1cn(C)cn1 (stereo not shown) [8-fluoro-4-methyl-5-(1-methyl-1H-imidazol-4-ylsulfonyl)-4,5-dihydro-1H-pyrazolo[4,3-c]quinoline]"
25,0.1 to 100 nM,"O=S(=O)(c1cccs1)N1c2cc(F)c(F)cc2-c2n[nH]cc2C1C1CC1 (stereo not shown) [4-cyclopropyl-7,8-difluoro-5-(thiophen-2-ylsulfonyl)-4,5-dihydro-2H-pyrazolo[4,3-c]quinoline]"
26,501 to 1000 nM,"O=S(=O)(c1ccc(C(F)(F)F)cc1)N1c2nccn2-c2[nH]ncc2C1C1CC1 (stereo not shown) [4-cyclopropyl-5-(4-(trifluoromethyl)phenylsulfonyl)-4,5-dihydro-1H-imidazo[1,2-a]pyrazolo[4,3-e]pyrimidine]"
27,101 to 500 nM,"CC1c2cn[nH]c2-c2ccccc2N1S(=O)(=O)c1cccnc1 (stereo not shown) [4-methyl-5-(pyridin-3-ylsulfonyl)-4,5-dihydro-1H-pyrazolo[4,3-c]quinoline]"
28,0.1 to 100 nM,"CC1c2cn[nH]c2-c2cc(F)c(F)cc2N1S(=O)(=O)c1ccc(Cl)s1 (stereo not shown) [5-(5-chlorothiophen-2-ylsulfonyl)-7,8-difluoro-4-methyl-4,5-dihydro-1H-pyrazolo[4,3-c]quinoline]"
29,0.1 to 100 nM,"O=S(=O)(c1ccc(Cl)cc1)N1Cc2c[nH]nc2-c2cc(F)ccc21 [5-[(4-chlorophenyl)sulfonyl]-8-fluoro-4,5-dihydro-2H-pyrazolo[4,3-c]quinoline]"

# Same assay, conditions: cleavage of MBP-C125 Swe substrate at the Aβ40 site; partially purified extract of IMR-32 cell membranes; ELISA; enantiomer A
row,IC50,Compound
1,101 to 500 nM,"CC1c2cn[nH]c2C2CCCCC2N1S(=O)(=O)c1ccc(Cl)cc1 (single isomer, unassigned) [5-(4-chlorophenylsulfonyl)-4-methyl-4,5,5a,6,7,8,9,9a-octahydro-1H-pyrazolo[4,3-c]quinoline]"
2,101 to 500 nM,"O=S(=O)(c1ccc(C(F)(F)F)cn1)N1c2ccc(F)cc2-c2[nH]ncc2C1C1CC1 (single isomer, unassigned) [4-cyclopropyl-8-fluoro-5-(5-(trifluoromethyl)pyridin-2-ylsulfonyl)-4,5-dihydro-1H-pyrazolo[4,3-c]quinoline]"
3,0.1 to 100 nM,"CC1c2cn[nH]c2-c2cc(F)c(F)cc2N1S(=O)(=O)c1ccc(C(F)(F)F)cc1 (single isomer, unassigned) [7,8-difluoro-4-methyl-5-(4-(trifluoromethyl)phenylsulfonyl)-4,5-dihydro-1H-pyrazolo[4,3-c]quinoline]"
4,0.1 to 100 nM,"CC1c2cn[nH]c2-c2ccc(O)cc2N1S(=O)(=O)c1ccc(Cl)cc1 (single isomer, unassigned) [5-(4-chlorophenylsulfonyl)-4-methyl-4,5-dihydro-1H-pyrazolo[4,3-c]quinolin-7-ol]"

# Same assay, conditions: cleavage of MBP-C125 Swe substrate at the Aβ40 site; partially purified extract of IMR-32 cell membranes; ELISA; enantiomer B
row,IC50,Compound
1,0.1 to 100 nM,"CC1c2cn[nH]c2C2CCCCC2N1S(=O)(=O)c1ccc(Cl)cc1 (single isomer, unassigned) [5-(4-chlorophenylsulfonyl)-4-methyl-4,5,5a,6,7,8,9,9a-octahydro-1H-pyrazolo[4,3-c]quinoline]"
2,0.1 to 100 nM,"O=S(=O)(c1ccc(C(F)(F)F)cn1)N1c2ccc(F)cc2-c2[nH]ncc2C1C1CC1 (single isomer, unassigned) [4-cyclopropyl-8-fluoro-5-(5-(trifluoromethyl)pyridin-2-ylsulfonyl)-4,5-dihydro-1H-pyrazolo[4,3-c]quinoline]"
3,101 to 500 nM,"CC1c2cn[nH]c2-c2cc(F)c(F)cc2N1S(=O)(=O)c1ccc(C(F)(F)F)cc1 (single isomer, unassigned) [7,8-difluoro-4-methyl-5-(4-(trifluoromethyl)phenylsulfonyl)-4,5-dihydro-1H-pyrazolo[4,3-c]quinoline]"
4,0.1 to 100 nM,"CC1c2cn[nH]c2-c2ccc(O)cc2N1S(=O)(=O)c1ccc(Cl)cc1 (single isomer, unassigned) [5-(4-chlorophenylsulfonyl)-4-methyl-4,5-dihydro-1H-pyrazolo[4,3-c]quinolin-7-ol]"
